US20260315476A1, “COMBINATION TREATMENT METHODS FOR CANCER WITH TP53 MUTATION” (HO'OLA THERAPEUTICS INC., priority 2022, published 2026)
Like-named read-outs stand apart in the source and are kept apart here.

Legend:
[1] = test system: mantle cell lymphoma (MCL); details: historical, cited from earlier work
[2] = Treatment emergent adverse events, CLL Part 3; assay type: in vivo, human
Protocol: (§1) In Phase 2 study, patients were divided into two study groups. In study group 1 (Part 2), patients with R/R CLL, R/R MCL, and marginal zone lymphoma (MZL) were enrolled (CLL n=16, MCL n=21). The patients were treated with the recommended dosing regimen from Phase 1 study, that is, zilovertamab (600 mg) and ibrutinib at approved dose (420 mg CLL, 560 mg MCL and MZL). In study group 2 (Part 3), patients with R/R CLL (n=31) were enrolled and randomly treated with either zilovertamab in combination with ibrutinib or ibrutinib alone.

[3] = test system: chronic lymphocytic leukemia (CLL); details: Byrd 2019, cited from earlier work
[4] = test system: mantle cell lymphoma (MCL); details: MCL Rule 2017, Relapsed/Refractory, N = 370; cited from earlier work
[5] = test system: chronic lymphocytic leukemia (CLL); experiment: Overall survival in CLL; assay type: in vivo, human; details: CLL patients
Protocol: (§2) In Phase 1 study (Part 1), patients with relapsed/refractory (R/R) mantle cell lymphoma (MCL) and R/R chronic lymphocytic leukemia/small lymphocytic lymphoma (CLL/SLL) were enrolled (CLL n=18, MCL n=12). 2, 4, 8, and 16 mg/kg and 300 mg and 600 mg doses of zilovertamab (formerly known as cirmtuzumab) were evaluated. Ibrutinib was added to the treatment after 1 month at dose of 420 mg for CLL, 560 mg for MCL. The recommended dosing regime was 600 mg of zilovertamab (i.v.) once every 2 weeks by three times and then once every 4 weeks in combination with ibrutinib at approved doses per indication (i.e., 420 mg for CLL, 560 mg for MCL).
as §1

[6] = test system: chronic lymphocytic leukemia (CLL); experiment: Clinical response rates in CLL (Phase 1/2 study, Parts 1 & 2 and Part 3); assay type: in vivo, human
Protocol: as §2, §1

[7] = test system: mantle cell lymphoma (MCL); details: historical, cited from earlier work; remark: listed apart in the source
[8] = test system: chronic lymphocytic leukemia (CLL); experiment: Clinical response rates in CLL (Phase 1/2 study, Parts 1 & 2 and Part 3); assay type: in vivo, human; details: Part 3, TN
[9] = Patient disposition and overall tolerability; assay type: in vivo, human; details: CLL Part 3
Protocol: as §2, §1

[10] = test system: mantle cell lymphoma (MCL); experiment: Overall survival in MCL; assay type: in vivo, human; details: MCL patients
Protocol: as §2, §1

[11] = MCL patients treated with BTKi (e.g., ibrutinib) alone; cited from earlier work
[12] = Rule 2019, No p53 mutation, N = 124
[13] = Rule 2019, p53 mutation, N = 20

## C=CC(=O)N1CCC[C@@H](n2nc(-c3ccc(Oc4ccccc4)cc3)c3c(N)ncnc32)C1 [ibrutinib, 1-[(3R)-3[4-Amino-3-(4-phenoxyphenyl)-1H-pyrazolo[3,4-d]pyrimidin-1-yl]piperidin-1-yl]prop-2-en-1-one]
[1]; Rule 2017, N = 370
  CR: 74 (20.0) n (%)
  ORR: 234 (63.2) n (%)
  PD: 86 (23.2) n (%)
[1]; [12]
  CR: 31 (25.0) n (%)
  ORR: 87 (70.2) n (%)
  PR: 56 (45.2) n (%)
[1]; [13]
  CR: 0 n (%)
  ORR: 11 (55.0) n (%)
  PR: 11 (55.0) n (%)
[2]
  Atrial Fibrillation, Grades 1-2: 1 (10.0) n (%)
  Atrial Fibrillation, Grades ≥3: 1 (10.0) n (%)
  Atrial Fibrillation, Overall: 2 (20.0) n (%)
  Back pain, Grades 1-2: 2 (20.0) n (%)
  Back pain, Grades ≥3: 0 n (%)
  Back pain, Overall: 2 (20.0) n (%)
  Constipation, Grades 1-2: 3 (30.0) n (%)
  Constipation, Grades ≥3: 0 n (%)
  Constipation, Overall: 3 (30.0) n (%)
  Contusion, Grades 1-2: 3 (30.0) n (%)
  Contusion, Grades ≥3: 0 n (%)
  Contusion, Overall: 3 (30.0) n (%)
  Coronavirus Infection, Grades 1-2: 1 (10.0) n (%)
  Coronavirus Infection, Grades ≥3: 1 (10.0) n (%)
  Coronavirus Infection, Overall: 2 (20.0) n (%)
  Diarrhea, Grades 1-2: 4 (40.0) n (%)
  Diarrhea, Grades ≥3: 0 n (%)
  Diarrhea, Overall: 4 (40.0) n (%)
  Dizziness, Grades 1-2: 3 (30.0) n (%)
  Dizziness, Grades ≥3: 0 n (%)
  Dizziness, Overall: 3 (30.0) n (%)
  Fall, Grades 1-2: 2 (20.0) n (%)
  Fall, Grades ≥3: 0 n (%)
  Fall, Overall: 2 (20.0) n (%)
  Fatigue, Grades 1-2: 2 (20.0) n (%)
  Fatigue, Grades ≥3: 0 n (%)
  Fatigue, Overall: 2 (20.0) n (%)
  Headache, Grades 1-2: 3 (30.0) n (%)
  Headache, Grades ≥3: 1 (10.0) n (%)
  Headache, Overall: 4 (40.0) n (%)
  Hematuria, Grades 1-2: 3 (30.0) n (%)
  Hematuria, Grades ≥3: 0 n (%)
  Hematuria, Overall: 3 (30.0) n (%)
  Hemoglobin decrease, Grades 1-2: 6 (60.0) n (%)
  Hemoglobin decrease, Grades ≥3: 1 (10.0) n (%)
  Hemoglobin decrease, Overall: 7 (70.0) n (%)
  Hypertension, Grades 1-2: 1 (10.0) n (%)
  Hypertension, Grades ≥3: 1 (10.0) n (%)
  Hypertension, Overall: 2 (20.0) n (%)
  Muscle spasms, Grades 1-2: 2 (20.0) n (%)
  Muscle spasms, Grades ≥3: 0 n (%)
  Muscle spasms, Overall: 2 (20.0) n (%)
  Nausea, Grades 1-2: 3 (30.0) n (%)
  Nausea, Grades ≥3: 0 n (%)
  Nausea, Overall: 3 (30.0) n (%)
  Neutrophils decrease, Grades 1-2: 1 (10.0) n (%)
  Neutrophils decrease, Grades ≥3: 2 (20.0) n (%)
  Neutrophils decrease, Overall: 3 (30.0) n (%)
  Platelets decrease, Grades 1-2: 7 (70.0) n (%)
  Platelets decrease, Grades ≥3: 1 (10.0) n (%)
  Platelets decrease, Overall: 8 (80.0) n (%)
  Pneumonia, Grades 1-2: 0 n (%)
  Pneumonia, Grades ≥3: 2 (20.0) n (%)
  Pneumonia, Overall: 2 (20.0) n (%)
  Pruritis, Grades 1-2: 2 (20.0) n (%)
  Pruritis, Grades ≥3: 0 n (%)
  Pruritis, Overall: 2 (20.0) n (%)
  Upper respiratory tract infection, Grades 1-2: 3 (30.0) n (%)
  Upper respiratory tract infection, Grades ≥3: 0 n (%)
  Upper respiratory tract infection, Overall: 3 (30.0) n (%)
[3]; 24 months, 1 or 2 prior systemic therapies
  Landmark PFS: ~82%
[3]; 24 months, >2 prior systemic therapies
  Landmark PFS: ~65%
[3]; 36 months, 1 or 2 prior systemic therapies
  Landmark PFS: ~73%
[3]; 36 months, >2 prior systemic therapies
  Landmark PFS: ~50%
[4]
  median OS: 25.0
[5]
  median OS: not reached
[6]; CLL Part 3
  Complete Response (CR): 1 (14.3) n (%)
  Median Duration of response (95% CI): NR (8.3, NE)
  Overall Response Rate (ORR): 7 (100.0) n (%)
  Partial Response (PR): 6 (85.7) n (%)
[6]; Part 3, 1 Prior
  CR: 0 n
  PD: 0 n
[6]; Part 3, Overall
  PD: 0 n
[6]; Part 3, ≥3 Prior
  CR: 0 n
  Median DoR: 8.3 months
  PD: 0 n
[7]; Rule 2019, No p53 Mutation
  M PFS (95% CI): 12.0 (7.1, 15.6)
[7]; Rule 2019, p53 Mutation
  M PFS (95% CI): 4.0 (2.1, 8.3)
[8]
  CR: 0 n
  PD: 0 n
[9]
  Study discontinuation: Death: 0 n
[10]
  median OS: not reached
[11]
  Grade 3 or 4 neutrophil decrease: 29%
